Test results: patent US20200031778A1, “NOVEL 5-SUBSTITUTED IMIDAZOLYLMETHYL DERIVATIVES” (Bayer CropScience Aktiengesellschaft, priority 2016, published 2020)

Experiment: Log P by HPLC on reversed phase columns (EEC directive 79/831 Annex V.A8; methods [a], [b], [c])
Assay type: physicochemical
Settings: for chromatographic logP: reversed phase HPLC column, method [a]: LC-UV, acidic range, 0.1% formic acid in water and acetonitrile as eluent (linear gradient from 10% to 95% acetonitrile)
How it was run: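 Reversed-phase HPLC with LC-UV detection, 10→95% acetonitrile linear gradient; aqueous eluent 0.1% formic acid [a], 0.001 M ammonium acetate, neutral [b], or 0.1% phosphoric acid [c]. Calibrated against C3–C16 alkan-2-ones of known Log P by retention-time linear interpolation; multiple values within a method separated by "+".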

Row | SMILES | LogP | chromatographic logP
1 | CC(C)(C)C(O)(Cn1cncc1C#N)c1cc(F)c(F)c(F)c1 (stereo not shown) [I-462] | 2.76^[a] | –
2 | CCOC(Cn1cncc1Cl)c1ccc(Oc2ccc(Br)cc2)cc1Br (stereo not shown) [I-58] | 4.21^[a] | –
3 | N#Cc1cncn1CC(O)(CCCC1CCCCC1)C1CCC1 (stereo not shown) [I-665] | 4.16^[a] | –
4 | N#Cc1cncn1CC(O)c1ccccc1C(F)(F)F (stereo not shown) [I-150] | 1.81^[a] | –
5 | N#CCOC(Cn1cncc1C#N)c1ccc(Oc2ccc(Br)cc2)cc1C(F)(F)F (stereo not shown) [I-87] | 3.73^[a] | –
6 | Cn1ccc2cc(C(O)(Cn3cncc3C#N)CC(C)(C)C)ccc21 (stereo not shown) [I-377] | 2.94^[a] | –
7 | N#Cc1cncn1CC(O)c1ccc(Oc2ccccc2)cc1Cl (stereo not shown) [I-76] | 2.70^[a] | –
8 | CC(O)(Cn1cncc1Cl)c1ccc(Oc2ccc(Cl)cc2)cc1Br (stereo not shown) [I-171] | 2.82^[a] | –
9 | OC(Cn1cncc1Cl)c1ccc(Oc2ccc(I)cc2)cc1Br (stereo not shown) [I-101] | 2.80^[a] | –
10 | N#Cc1cncn1CC(O)(CCCC1CCCCC1)C1(F)CC1 (stereo not shown) [I-672] | 3.71^[a] | –
11 | CC(O)(Cn1cncc1F)c1cnc(Oc2ccc(C(F)F)cc2)cc1C(F)(F)F (stereo not shown) [I-230] | 2.17^[a] | –
12 | OC(Cn1cncc1Cl)c1cnc(Oc2ccc(Cl)cc2)cc1C(F)(F)F (stereo not shown) [I-25] | 2.55^[a] | –
13 | CC(=O)c1cncn1CC(C)(O)c1ccc(Oc2ccc(C(C)C)cc2)nc1C(F)(F)F (stereo not shown) [I-299] | 3.33^[a] | –
14 | CC(O)(Cn1cncc1C(F)(F)F)c1ccc(Oc2ccc(Cl)cc2)cc1Cl (stereo not shown) [I-183] | 4.25^[a] | –
15 | CC(O)(Cn1cncc1Cl)c1ccc(Oc2ccc(C(F)(F)F)cc2)cc1Cl (stereo not shown) [I-159] | 3.02^[a] | –
16 | C[Si](C)(C)C=CC(O)(Cn1cncc1C#N)C1(F)CC1 (stereo not shown) [I-679] | 2.77^[a] | –
17 | CC(O)(Cn1cncc1Cl)c1ccc(Oc2ccc(Cl)cc2)cc1 (stereo not shown) [I-164] | 2.32^[a] | –

Row | SMILES | LogP | chromatographic logP
18 | CCOC(Cn1cncc1F)c1cnc(Oc2ccc(Cl)cc2)cc1C(F)(F)F (stereo not shown) [I-132] | 3.15^[a] | –
19 | CC(O)(Cn1cncc1C#N)c1ccc(Oc2ccc(Br)nc2)nc1C(F)(F)F (stereo not shown) [I-364] | 2.44^[a] | –
20 | O=C(Cn1cncc1Br)c1ccc(Oc2ccc(I)cc2)cc1F [IX-48] | – | 3.19
21 | CC(C)(C)CC(O)(Cn1cncc1C#N)c1ccc2occc2c1 (stereo not shown) [I-369] | 2.88^[a] | –
22 | CCCCC(O)(Cn1cncc1C#N)c1ccc(OC(F)(F)F)cc1 (stereo not shown) [I-265] | 3.25^[a] | –
23 | CCCOC(Cn1cncc1C#N)c1ccc(Oc2ccc(Cl)cc2)cc1C(F)(F)F (stereo not shown) [I-85] | 4.92^[a] | –
24 | N#Cc1cncn1CC(O)c1ccc(Oc2ccc(Cl)cn2)cc1Cl (stereo not shown) [I-69] | 2.54 ^[a] | –
25 | N#Cc1cncn1CC(O)(CCCC1CCCCC1)C1CC1 (stereo not shown) [I-661] | 3.83^[a] | –
26 | OC(Cn1cncc1Cl)c1ccc(Oc2ccc(I)cc2)cc1F (stereo not shown) [I-31] | 2.51^[a] | –
27 | CC(C)CC(O)(Cn1cncc1C#N)c1ccccc1C(F)(F)F (stereo not shown) [I-343] | 2.88^[a] | –
28 | N#Cc1cncn1CC(O)c1ccc(Oc2ccc(C(F)(F)F)cc2)nc1 (stereo not shown) [I-129] | 2.55^[a] | –
29 | CC(=O)OC(Cn1cncc1C#N)c1ccc(Oc2ccc(Cl)cc2)cc1C(F)(F)F (stereo not shown) [I-86] | 3.7^8[a] | –
30 | OC(C#CCC1CCCCC1)(Cn1cncc1C(F)(F)F)C1(Cl)CC1 (stereo not shown) [I-601] | 4.05^[a] | –
31 | O=Cc1ccc(Oc2ccc(C(=O)Cn3cncc3F)c(Cl)n2)cc1 [IX-85] | – | 1.59
32 | O=C(Cn1cncc1Cl)c1ccc(Oc2ccc(Cl)cn2)cc1 [IX-02] | – | 2.12
33 | CC(C)(C)CC(O)(Cn1cncc1C#N)c1ccc(Cl)cc1 (stereo not shown) [I-223] | 3.11^[a] | –

The remaining lines, values ahead:

Row | LogP | chromatographic logP | SMILES
34 | 3.72^[a] | – | CCCC(C)C(O)(Cn1cncc1C#N)c1ccc(Cl)cc1Cl (single isomer, unassigned) [I-316]
35 | 2.92^[a] | – | N#Cc1cncn1CC(O)(C#CC1CCc2ccccc21)C1(Cl)CC1 (stereo not shown) [I-602]
36 | 3.11^[a] | – | CCc1ccc(C#CC(O)(Cn2cncc2C#N)C2(Cl)CC2)cc1 (stereo not shown) [I-320]
37 | 2.35^[a] | – | N#Cc1cncn1CC(O)(c1ccccc1C(F)(F)F)C1CC1 (stereo not shown) [I-330]
38 | 2.51^[a] | – | N#Cc1cncn1CC(O)(CC1CC1)c1cc(F)c(F)c(F)c1 (stereo not shown) [I-501]
39 | 2.78^[a] | – | N#Cc1cncn1CC(O)(c1ccc(Cl)cc1Br)C1(Cl)CC1 (stereo not shown) [I-384]
40 | 3.17^[a] | – | C[Si](C)(C)CC(O)(Cn1cncc1C#N)c1ccccc1F (stereo not shown) [I-271]
41 | 3.05^[a] | – | C[Si](C)(C)CC(O)(Cn1cncc1C#N)c1ccc(F)cc1 (stereo not shown) [I-227]
42 | 3.52^[a] | – | CCCC#Cc1ccc(C(O)(Cn2cncc2C#N)C2(F)CC2)c(Cl)c1 (stereo not shown) [I-641]
43 | 2.39^[a] | – | N#Cc1cncn1CC(O)(c1c(Cl)ccc(Cl)c1F)C1(F)CC1 (stereo not shown) [I-564]
44 | 2.02^[a] | – | N#Cc1cncn1CC(O)(c1cc(F)ccc1F)C1(F)CC1 (stereo not shown) [I-523]
45 | 2.35^[a] | – | N#Cc1cncn1CC(O)(c1ccc(F)c(Cl)c1F)C1(F)CC1 (stereo not shown) [I-635]
46 | 2.66^[a] | – | CC(C)(C)C(O)(Cn1cncc1C#N)c1ccc(F)c(F)c1 (stereo not shown) [I-483]
47 | 3.78^[a] | – | N#Cc1cncn1CC(O)(CC1CCCCC1)c1ccc(F)cc1Br (stereo not shown) [I-465]
48 | 2.39^[a] | – | N#Cc1cncn1CC(O)(c1cc(Cl)ccc1Cl)C1(F)CC1 (stereo not shown) [I-623]
49 | 2.78^[a] | – | N#Cc1cncn1CC(O)(c1cc(F)c(Cl)c(Cl)c1)C1(F)CC1 (stereo not shown) [I-535]
50 | 3.69^[a] | – | CCCC(C)CCC(O)(Cn1cncc1C#N)C1(Cl)CC1 (stereo not shown) [I-677]
51 | 3.10^[a] | – | N#Cc1cncn1CC(O)(CC1CC1)c1ccc(Cl)cc1C(F)(F)F (stereo not shown) [I-460]
52 | 2.67^[a] | – | N#Cc1cncn1CC(O)(CC1CC1)c1c(F)cc(Cl)cc1F (stereo not shown) [I-512]

Row | LogP | chromatographic logP | SMILES
53 | 2.94^[a] | – | N#Cc1cncn1CC(O)(c1ccc(-c2ccccc2)cc1)C1(Cl)CC1 (stereo not shown) [I-280]
54 | 1.78^[a] | – | CC(C)C(O)(Cn1cncc1C#N)C1(F)CC1 (stereo not shown) [I-380]
55 | 4.01^[a] | – | N#Cc1cncn1CC(O)(c1ccc(C#CC2CCCC2)cc1Cl)C1(F)CC1 (stereo not shown) [I-640]
56 | 2.65^[a] | – | N#Cc1cncn1CC(O)(CC1CC1)c1cc(F)cc(Br)c1 (stereo not shown) [I-532]
57 | 3.15^[a] | – | CC(C)(C)CC(O)(Cn1cncc1C#N)c1cccc(F)c1Cl (stereo not shown) [I-368]
58 | 2.36^[a] | – | COc1c(Cl)ccc(C(O)(Cn2cncc2C#N)C2(F)CC2)c1F (stereo not shown) [I-527]
59 | 2.63^[a] | – | Cc1c(Cl)ccc(C(O)(Cn2cncc2C#N)C2(F)CC2)c1F (stereo not shown) [I-685]
60 | 2.69^[a] | – | CC(C)C(O)(Cn1cncc1C#N)c1ccc(F)cc1Br (stereo not shown) [I-424]
61 | 2.92^[a] | – | CC(C)C(O)(Cn1cncc1C#N)c1ccc(Cl)cc1Cl (stereo not shown) [I-300]
62 | 3.39^[a] | – | CC(C)(C)CC(O)(Cn1cncc1C#N)c1ccc(F)cc1Cl (stereo not shown) [I-259]
63 | 3.22^[a] | – | CC(C)(C)C(O)(Cn1cncc1C#N)c1cc(Cl)cc(Cl)c1 (stereo not shown) [I-463]
64 | 2.48^[a] | – | N#Cc1cncn1CC(O)(c1ccc(F)cc1Br)C1(Cl)CC1 (stereo not shown) [I-387]
65 | 2.78^[a] | – | CCCC(O)(Cn1cncc1C#N)c1ccc(Cl)cc1F (stereo not shown) [I-401]
66 | 2.44^[a] | – | N#Cc1cncn1CC(O)(c1ccc(Cl)c(F)c1)C1(F)CC1 (stereo not shown) [I-446]
67 | 2.20^[a] | – | N#Cc1cncn1CC(O)(CC1CC1)c1cccc(F)c1F (stereo not shown) [I-517]
68 | 2.73^[a] | – | N#Cc1cncn1CC(O)(c1ccc(Br)cc1Cl)C1(Cl)CC1 (stereo not shown) [I-333]
69 | 2.21^[a] | – | C#Cc1ccc(C(O)(Cn2cncc2C#N)C2(F)CC2)c(F)c1 (stereo not shown) [I-647]
70 | 2.38^[a] | – | N#Cc1cncn1CC(O)(c1cc(F)cc(Cl)c1)C1(F)CC1 (stereo not shown) [I-474]
